Molecules are shown by their SMILES.

One molecule from ChEMBL document CHEMBL3526061, “Glucuronidation of edaravone by human liver and kidney microsomes: biphasic kinetics and identification of UGT1A9 as the major UDP-glucuronosyltransferase isoform” (Drug Metab Dispos, 2012) can be followed below.

Common to all, as to type: ADME
A short description of data set [1]: Drug metabolism in human kidney microsomes assessed as intrinsic clearance for drug glucuronidation per mg tissue in presence of BSA by LC-MS/MS method.
Data set [2] addresses T1, UDP-glucuronosyltransferase 1A8 (Homo sapiens, UniProt Q9HAW9).
T1 sequence (Q9HAW9 whole entry): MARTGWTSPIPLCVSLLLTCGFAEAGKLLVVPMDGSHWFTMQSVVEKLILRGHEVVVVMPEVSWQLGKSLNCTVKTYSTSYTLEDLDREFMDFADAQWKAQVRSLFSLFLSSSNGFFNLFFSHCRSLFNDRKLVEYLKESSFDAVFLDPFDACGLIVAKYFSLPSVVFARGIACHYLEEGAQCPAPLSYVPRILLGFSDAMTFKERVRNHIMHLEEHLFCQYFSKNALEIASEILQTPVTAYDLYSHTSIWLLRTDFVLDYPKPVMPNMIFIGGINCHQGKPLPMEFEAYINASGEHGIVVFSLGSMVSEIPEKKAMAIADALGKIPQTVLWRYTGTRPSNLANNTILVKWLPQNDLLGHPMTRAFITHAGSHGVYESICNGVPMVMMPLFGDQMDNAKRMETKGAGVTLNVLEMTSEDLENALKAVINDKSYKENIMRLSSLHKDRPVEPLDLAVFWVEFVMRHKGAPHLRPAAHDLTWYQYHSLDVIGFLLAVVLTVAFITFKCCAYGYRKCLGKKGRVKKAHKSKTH
As to the kind of experiment: Activity of human recombinant UGT1A8 expressed in insect cells assessed as enzyme mediated glucuronidation at 12.5 uM by LC-MS/MS method.

In data set [3] the test system is Liver microsome. Nature of the data set: Drug metabolism in human liver microsomes assessed as intrinsic clearance for drug glucuronidation per mg tissue in presence of BSA by LC-MS/MS method.
Data set [4] concerns Liver microsome. Nature of the data set: Drug metabolism in human liver microsomes assessed as drug glucuronidation per mg tissue in absence of BSA by LC-MS/MS method.
Data set [5] addresses T1, UDP-glucuronosyltransferase 1A8. As to the kind of experiment: Activity of human recombinant UGT1A8 expressed in insect cells assessed as enzyme mediated glucuronidation at 500 uM by LC-MS/MS method.
In data set [6] the test system is Liver microsome. As to the kind of experiment: Drug metabolism in human liver microsomes assessed as drug glucuronidation in presence of 100 to 1000 uM propofol by LC-MS/MS method.
Data set [7] has as its system Liver microsome. As to the kind of experiment: Drug metabolism in human liver microsomes assessed as drug glucuronidation in presence of […] naloxone by LC-MS/MS method.
The target in data set [8] is T2, UDP-glucuronosyltransferase 1A7 (Homo sapiens, UniProt Q9HAW7).
T2 sequence (Q9HAW7 whole entry): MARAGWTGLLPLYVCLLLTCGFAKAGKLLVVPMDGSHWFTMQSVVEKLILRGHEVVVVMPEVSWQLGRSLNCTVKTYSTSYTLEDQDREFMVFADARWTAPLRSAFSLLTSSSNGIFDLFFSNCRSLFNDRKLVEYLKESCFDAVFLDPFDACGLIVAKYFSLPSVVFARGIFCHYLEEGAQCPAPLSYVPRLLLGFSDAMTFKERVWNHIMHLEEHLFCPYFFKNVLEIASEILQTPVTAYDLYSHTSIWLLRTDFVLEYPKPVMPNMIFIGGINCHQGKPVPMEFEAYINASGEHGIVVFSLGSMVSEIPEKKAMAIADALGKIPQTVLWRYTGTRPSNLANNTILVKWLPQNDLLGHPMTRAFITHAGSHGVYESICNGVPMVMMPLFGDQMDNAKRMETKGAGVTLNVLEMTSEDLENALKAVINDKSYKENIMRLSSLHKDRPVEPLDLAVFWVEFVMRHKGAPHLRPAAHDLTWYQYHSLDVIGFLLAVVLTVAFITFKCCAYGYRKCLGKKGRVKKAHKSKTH
Nature of the data set: Activity of human recombinant UGT1A7 expressed in insect cells assessed as enzyme mediated glucuronidation at 500 uM by LC-MS/MS method.

Data set [9] concerns the target T3, UDP-glucuronosyltransferase 2B7 (Homo sapiens, UniProt P16662).
T3 sequence (P16662 whole entry): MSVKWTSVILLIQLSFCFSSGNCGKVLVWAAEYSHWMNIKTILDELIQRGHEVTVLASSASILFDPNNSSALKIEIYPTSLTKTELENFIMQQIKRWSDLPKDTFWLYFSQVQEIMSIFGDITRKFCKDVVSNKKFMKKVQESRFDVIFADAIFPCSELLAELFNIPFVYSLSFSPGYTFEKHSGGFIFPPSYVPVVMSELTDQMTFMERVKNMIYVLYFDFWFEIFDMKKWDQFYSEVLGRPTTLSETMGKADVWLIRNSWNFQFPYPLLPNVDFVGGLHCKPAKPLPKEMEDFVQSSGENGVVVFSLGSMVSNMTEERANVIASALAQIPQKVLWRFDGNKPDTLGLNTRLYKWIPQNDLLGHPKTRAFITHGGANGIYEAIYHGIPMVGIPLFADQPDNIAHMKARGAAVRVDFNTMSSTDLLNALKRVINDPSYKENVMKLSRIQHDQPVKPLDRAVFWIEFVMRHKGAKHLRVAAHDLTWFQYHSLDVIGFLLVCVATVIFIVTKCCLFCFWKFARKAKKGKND
As to the kind of experiment: Activity of human recombinant UGT2B7 expressed in insect cells assessed as intrinsic clearance for enzyme mediated glucuronidation per mg protein by LC-MS/MS method.

Data set [10] in a line: Drug metabolism in human kidney microsomes assessed as drug glucuronidation in presence of BSA by LC-MS/MS method.
For data set [11], the target named is T4, UDP-glucuronosyltransferase 2B4 (Homo sapiens, UniProt P06133).
T4 sequence (P06133 whole entry): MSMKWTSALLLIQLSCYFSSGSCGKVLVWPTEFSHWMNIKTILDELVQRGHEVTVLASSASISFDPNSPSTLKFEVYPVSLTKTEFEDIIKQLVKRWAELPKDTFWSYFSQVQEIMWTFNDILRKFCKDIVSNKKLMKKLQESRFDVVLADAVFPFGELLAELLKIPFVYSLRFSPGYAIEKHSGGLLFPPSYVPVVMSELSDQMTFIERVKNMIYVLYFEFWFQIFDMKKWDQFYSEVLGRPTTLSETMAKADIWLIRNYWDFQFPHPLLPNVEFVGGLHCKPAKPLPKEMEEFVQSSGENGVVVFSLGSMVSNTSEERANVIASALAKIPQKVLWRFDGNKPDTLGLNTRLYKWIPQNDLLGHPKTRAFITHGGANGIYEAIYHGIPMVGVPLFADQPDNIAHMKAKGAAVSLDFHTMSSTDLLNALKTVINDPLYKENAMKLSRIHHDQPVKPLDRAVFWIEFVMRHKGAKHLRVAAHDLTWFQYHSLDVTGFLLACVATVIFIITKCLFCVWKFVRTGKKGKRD
Nature of the data set: Activity of human recombinant UGT2B4 expressed in insect cells assessed as enzyme mediated glucuronidation at 500 uM by LC-MS/MS method.

Take `CC1=NN(c2ccccc2)C(=O)C1` [EDARAVONE]: the CL(high) in data set [1] came to 78.5 µL/min/mg. In addition, the CL(low) in data set [1] came to 3.6 µL/min/mg. Further, the Drug metabolism result in data set [2] is reported as “metabolite_detected”; in data set [5], “metabolite_detected”; in data set [6], “metabolite_not_detected”; in data set [7], “metabolite_detected”; in data set [8], “metabolite_detected”; in data set [11], “metabolite_detected”. Also, the CLHH in data set [3] worked out at 16.4 µL/min/g. The CLHL in data set [3] was found to be 3.7 µL/min/mg. Also, the VmaxH in [4] is listed as 309.4 pmol/min/g. Further, the VmaxL in [4] turned out to be 7429 pmol/min/g. Further, in data set [9], the CL stood at 0.7 µL/min/g. The Km in data set [10] (read-out: KmH) was found to be 8.7 µM; in data set [10] (read-out: KmL), 1470 µM.
